Among the data in PubChem BioAssay (NCI) are TGI and GI50 values, retold here.

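Where inhibition never reached the appropriate level, the endpoint shown equals the highest concentration tested. Otherwise, values were interpolated linearly from a five-concentration, 48-hour dose response in 96-well plates. GI50 marks 50% less growth. At the TGI there is no net growth.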

What all share (assay): NCI tumour cell line growth inhibition, 48 h
Test [1] deals with CAKI-1 renal.
Test [2] concerns EKVX NSCLC.
For test [3], the system named is MDA-N.
For test [4], the system named is OVCAR-4 ovarian.
The subject of test [5] is HOP-92 NSCLC.
The test system of test [6] is SN12C renal.
The subject of test [7] is OVCAR-3 ovarian.
The test system of test [8] is SF-268 CNS.
Test [9] deals with HS 578T breast.

With `N#Cc1c(-c2ccccc2)cc(-c2ccc(Cl)cc2)[nH]c1=S`, the TGI was above 100 µM in test [1]; 70.4 µM in test [2]; above 100 µM in test [3]; above 100 µM in [4]; above 100 µM in test [5]; above 100 µM in test [6]. The TGI in test [7], in [8] and in test [9] was above 100 µM in each case.
`CC(=O)c1cnc2oc3ccc(O)cc3c2c1-c1ccccc1`: the TGI in [1] was above 100 µM; in test [2] it was above 100 µM; in test [3], above 100 µM; in test [4], 36.6 µM; in [5], above 100 µM; in test [6] it was above 100 µM. The TGI in [7] is 82.6 µM; in test [8] it was above 100 µM; in test [9], above 100 µM. For the same compound, in [8], the GI50 is 27.7 µM.
As for `[O-]/[N+](=C\c1ccccc1OC(=S)S)c1ccc(Cl)cc1`, the TGI in [1] was above 100 µM; in [2], above 100 µM; in test [3] it was above 100 µM; in test [4], 37 µM; in [5] it was 18.1 µM; in test [6] it was 97.8 µM. Moreover, the TGI in [7] was above 100 µM; in [8], 77.7 µM; in [9], above 100 µM.
In the case of `Cc1c2c(OCC3CCCCO3)nn(C)c(=O)c2c(C)n1-c1ccccc1` (configuration not stated), the TGI was found to be 59 µM in test [1]; 33.2 µM in test [2]; 35.8 µM in [3]; 32.8 µM in test [4]; 33.1 µM in test [5]; 40.6 µM in test [6]. The figures for the TGI in [7], in test [8] and in [9] were 33.3 µM, 30.7 µM and 46.6 µM, respectively.
`CCOC(=O)/C=C(\C(=O)OCC)n1ccc(=O)n(Cc2cn(COCCOC(C)=O)nn2)c1=O`: the TGI in test [1] is 21.2 µM; in test [2], 38.9 µM; in test [3] it was above 100 µM; in [4] it was 38.3 µM; in test [5] it was 35.3 µM; in test [6], 41.8 µM. For the same compound, the values for the TGI in test [7], in test [8] and in test [9] were 48 µM, above 57.6 µM and 63.6 µM, respectively.
`CC(NC(=O)N(C)C)NC(=O)N(C)C`: the TGI in [1], in test [2], in test [3], in test [4], in [5] and in [6] was above 10 µM in each case. Moreover, the TGI in test [7], in [8] and in test [9] was above 10 µM each time.
With `COC1=C(C)C(=O)c2c(c(COC(N)=O)c3n2CC(OC(C)=O)C3OC(C)=O)C1=O` (configuration not stated), the TGI in test [1] was below 0.0278 µM; in [2], 0.678 µM; in test [3] it was 0.29 µM; in [4], 1.03 µM; in [5], 0.54 µM; in test [6] it was 1.09 µM. Moreover, the TGI in test [7] was found to be 0.416 µM; in [8], 0.674 µM; in test [9] it was 1.09 µM.
Consider `Cc1cnc2c(c1)C(=O)C1=C(C2=O)C2OC(=O)CC2OC1(C)C` (configuration not stated), for which the TGI was 0.405 µM in [1]; 0.826 µM in test [2]; 0.865 µM in test [3]; 0.359 µM in test [4]; 0.384 µM in [5]; 0.318 µM in test [6]. Besides, the values for the TGI in [7], in test [8] and in [9] were 0.153 µM, 0.623 µM and 0.693 µM, respectively.
In the case of `Nc1nn2c(=O)c3ccccc3nc2s1`, the TGI in test [1], in test [2], in test [3], in test [4], in [5] and in test [6] was above 100 µM each time. The TGI in test [7], in test [8] and in test [9] was above 100 µM each time.
As for `Oc1[nH]c2ccccc2c1N=NC(=S)Nc1ccc(Cl)cc1`, the TGI in test [1] is 64 µM; in test [2], above 100 µM; in [3], above 100 µM; in [4], above 100 µM; in test [5], above 100 µM; in test [6] it was above 100 µM. Further, the TGI in test [7], in test [8] and in [9] was above 100 µM in each case.
As for `CCCCn1c(-c2ccc([N+](=O)[O-])cc2)cs/c1=N/N=C1\C(=O)Nc2ccc(Br)cc21`, the TGI in [1] came out at 63.2 µM; in test [2], 79.3 µM; in test [3], 45.2 µM; in test [4], 31.8 µM; in [5] it was 73.3 µM; in test [6], 11.4 µM. In addition, the TGI in test [7] was 39.8 µM; in [8], above 100 µM; in test [9], above 100 µM.
Take `COCCOCCOC1=CC(=O)c2c(O)ccc(O)c2C1=O`: the TGI in test [1] amounted to 2.04 µM; in test [2] it was 7.54 µM; in test [3], 0.289 µM; in test [4] it was 3.13 µM; in [5] it was 3.71 µM; in test [6] it was 3.8 µM. Moreover, the TGI is 2.75 µM in test [7], 6.93 µM in test [8] and 6.05 µM in test [9].
With `COc1cc(NC(C)=O)ccc1C(=O)NN1C(=O)/C(=C/c2ccco2)N=C1c1ccccc1`, the TGI in test [1], in test [2], in test [3], in [4], in test [5] and in [6] was above 50 µM each time. In addition, the TGI in test [7], in test [8] and in test [9] was above 50 µM each time.
With `N#Cc1nc(C2CCC2)oc1N`, the TGI in test [1], in test [2], in test [3], in test [4], in test [5] and in test [6] was above 100 µM in each case. The TGI in test [7], in test [8] and in [9] was above 100 µM throughout.
